According to patent US20100267561A1, “HERBICIDAL PYRIDAZINONE DERIVATIVES” (priority 2007, published 2010):

Tests used:
Assay type in all cases: in vivo
[1] = tested on: Russian thistle (Salsola iberica); assay: Test B pre-/postemergence plant response; details: Preemergence; for Russian Thistle plant response rating: 8 g ai/ha
Procedure, shortened: (§1)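 Visual scoring from 0 (no effect) to 100 (complete control) against untreated controls was done 13 to 15 days after greenhouse treatment. Chemicals were formulated in a surfactant-containing non-phytotoxic solvent and applied to soil preemergence or to 1- to 4-leaf (2-18 cm) plants postemergence.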

[2] = tested on: catchweed bedstraw (Galium aparine); assay: Test B pre-/postemergence plant response; details: Preemergence; for Galium plant response rating: 8 g ai/ha
Procedure, shortened: as §1

[3] = tested on: cocklebur (Xanthium strumarium); assay: Test B pre-/postemergence plant response; details: for Cocklebur plant response rating: 8 g ai/ha
Procedure, shortened: as §1

[4] = tested on: common (oilseed) sunflower (Helianthus annuus); assay: Test B pre-/postemergence plant response; details: Preemergence; for Sunflower plant response rating: 8 g ai/ha
Procedure, shortened: as §1

[5] = tested on: downy bromegrass (Bromus tectorum); assay: Test B pre-/postemergence plant response; details: for Bromegrass, Downy plant response rating: 8 g ai/ha
Procedure, shortened: as §1

[6] = tested on: goosegrass (Eleusine indica); assay: Test B pre-/postemergence plant response; details: for Goosegrass plant response rating: 8 g ai/ha
Procedure, shortened: as §1

[7] = tested on: green foxtail (Setaria viridis); assay: Test B pre-/postemergence plant response; details: for Foxtail, Green plant response rating: 8 g ai/ha
Procedure, shortened: as §1

[8] = tested on: large crabgrass (Digitaria sanguinalis); assay: Test B pre-/postemergence plant response; details: for Crabgrass, Large plant response rating: 8 g ai/ha
Procedure, shortened: as §1

[9] = tested on: pigweed (Amaranthus retroflexus); assay: Test B pre-/postemergence plant response; details: for Pigweed plant response rating: 8 g ai/ha
Procedure, shortened: as §1

soybean (Glycine max) = assay: Test B pre-/postemergence plant response; details: for Soybean plant response rating: 8 g ai/ha
Procedure, shortened: as §1

[10] = tested on: velvetleaf (Abutilon theophrasti); assay: Test B pre-/postemergence plant response; details: for Velvetleaf plant response rating: 8 g ai/ha
Procedure, shortened: as §1

[11] = tested on: wheat (Triticum aestivum); assay: Test B pre-/postemergence plant response; details: for Wheat plant response rating: 8 g ai/ha
Procedure, shortened: as §1

[12] = tested on: woolly cupgrass (Eriochloa villosa); assay: Test B pre-/postemergence plant response; details: for Cupgrass, Woolly plant response rating: 8 g ai/ha
Procedure, shortened: as §1

rice (Oryza sativa) = assay: Test B flooded paddy test plant response
Procedure, shortened: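 Step one: raise plants to 2 leaves. Step two: flood pots 3 cm over the soil and apply compound into the water, keeping this depth. Step three: after 13–15 greenhouse days, score visually versus controls, 0–100, where 100 means complete control.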

[13] = 16 g ai/ha, scale 0 to 100 (0 no effect, 100 complete control)
[14] = 31 g ai/ha, scale 0 to 100 (0 no effect, 100 complete control)
[15] = 31 g ai/ha, 0 to 100 scale, 0 no effect, 100 complete control
[16] = Postemergence, 16 g ai/ha, scale 0 to 100
[17] = Postemergence, 31 g ai/ha, scale 0 to 100
[18] = Postemergence, 62 g ai/ha, scale 0 to 100, 0 no effect, 100 complete control
[19] = Preemergence, 16 g ai/ha, scale 0 to 100 (0 no effect, 100 complete control)
[20] = Preemergence, 31 g ai/ha, 0 to 100 scale, 0 no effect, 100 complete control
[21] = Preemergence, 62 g ai/ha, scale 0 to 100
[22] = Preemergence, 31 g ai/ha, scale 0 to 100 (0 no effect, 100 complete control)
[23] = Preemergence, 62 g ai/ha, 0 to 100 scale, 0 no effect, 100 complete control
[24] = Flood (flooded paddy test), 62 g ai/ha, scale 0 to 100, 0 no effect, 100 complete control
[25] = Flood (flooded paddy test), 125 g ai/ha, scale 0 to 100, 0 no effect, 100 complete control
[26] = Flood (flooded paddy test), 250 g ai/ha, scale 0 to 100, 0 no effect, 100 complete control
[27] = Flood, 31 g ai/ha, scale 0 to 100

Cn1ncc(O)c(-n2nc(-c3ccc(Cl)cc3)cc2C2CC2)c1=O [Compound 45]
Plant response rating, Russian Thistle [1, 13]: 0 | Plant response rating, Russian Thistle [1, 14]: 0 | Russian Thistle plant response rating ([1]; scale 0 to 100): 0 | Plant response rating, Galium [2, 13]: 0 | Plant response rating, Galium [2, 15]: 0 | Plant response rating, Galium ([2]; 62 g ai/ha, scale 0 to 100): 0 | Galium plant response rating ([2]; scale 0 to 100): 0 | Cocklebur plant response rating ([3]; postemergence, 0-100 scale): 0 | Plant response rating, Cocklebur [3, 16]: 0 | Plant response rating, Cocklebur [3, 17]: 0 | Plant response rating, Cocklebur [3, 18]: 0 | Plant response rating, Cocklebur [3, 19]: 0 | Plant response rating, Cocklebur [3, 20]: 0 | Plant response rating, Cocklebur [3, 21]: 0 | Cocklebur plant response rating ([3]; Preemergence, scale 0 to 100): 0 | Plant response rating, Sunflower [4, 13]: 0 | Plant response rating, Sunflower [4, 14]: 0 | Plant response rating, Sunflower ([4]; 62 g ai/ha, scale 0 to 100): 0 | Sunflower plant response rating ([4]; scale 0 to 100): 0 | Bromegrass, Downy plant response rating ([5]; postemergence, 0-100 scale): 30 | Plant response rating, Bromegrass, Downy [5, 16]: 60 | Plant response rating, Bromegrass, Downy [5, 17]: 90 | Plant response rating, Bromegrass, Downy [5, 18]: 90 | Plant response rating, Bromegrass, Downy [5, 19]: 50 | Plant response rating, Bromegrass, Downy [5, 20]: 80 | Plant response rating, Bromegrass, Downy [5, 21]: 90 | Bromegrass, Downy plant response rating ([5]; Preemergence, scale 0 to 100): 0 | Goosegrass plant response rating ([6]; postemergence, 0-100 scale): 65 | Plant response rating, Goosegrass [6, 16]: 70 | Plant response rating, Goosegrass [6, 17]: 80 | Plant response rating, Goosegrass [6, 18]: 95 | Plant response rating, Goosegrass [6, 19]: 0 | Plant response rating, Goosegrass [6, 20]: 0 | Plant response rating, Goosegrass [6, 21]: 0 | Goosegrass plant response rating ([6]; Preemergence, scale 0 to 100): 0 | Foxtail, Green plant response rating ([7]; postemergence, 0-100 scale): 60 | Plant response rating, Foxtail, Green [7, 16]: 95 | Plant response rating, Foxtail, Green [7, 17]: 100 | Plant response rating, Foxtail, Green [7, 18]: 100 | Plant response rating, Foxtail, Green [7, 19]: 100 | Plant response rating, Foxtail, Green [7, 20]: 100 | Plant response rating, Foxtail, Green [7, 21]: 100 | Foxtail, Green plant response rating ([7]; Preemergence, scale 0 to 100): 100 | Crabgrass, Large plant response rating ([8]; postemergence, 0-100 scale): 65 | Plant response rating, Crabgrass, Large [8, 16]: 80 | Plant response rating, Crabgrass, Large [8, 17]: 100 | Plant response rating, Crabgrass, Large [8, 18]: 100 | Plant response rating, Crabgrass, Large [8, 19]: 0 | Plant response rating, Crabgrass, Large [8, 20]: 0 | Plant response rating, Crabgrass, Large [8, 21]: 0 | Crabgrass, Large plant response rating ([8]; Preemergence, scale 0 to 100): 0 | Pigweed plant response rating ([9]; postemergence, 0-100 scale): 0 | Plant response rating, Pigweed [9, 16]: 0 | Plant response rating, Pigweed [9, 17]: 0 | Plant response rating, Pigweed [9, 18]: 0 | Plant response rating, Pigweed [9, 19]: 0 | Plant response rating, Pigweed [9, 22]: 0 | Plant response rating, Pigweed [9, 21]: 0 | Pigweed plant response rating ([9]; Preemergence, scale 0 to 100): 0 | Soybean plant response rating (soybean (Glycine max); postemergence, 0-100 scale): 0 | Plant response rating, Soybean (soybean (Glycine max); [16]): 0 | Plant response rating, Soybean (soybean (Glycine max); [17]): 0 | Plant response rating, Soybean (soybean (Glycine max); [18]): 0 | Plant response rating, Soybean (soybean (Glycine max); [19]): 0 | Plant response rating, Soybean (soybean (Glycine max); [21]): 65 | Velvetleaf plant response rating ([10]; postemergence, 0-100 scale): 0 | Plant response rating, Velvetleaf [10, 16]: 0 | Plant response rating, Velvetleaf [10, 17]: 0 | Plant response rating, Velvetleaf [10, 18]: 0 | Plant response rating, Velvetleaf [10, 19]: 0 | Plant response rating, Velvetleaf [10, 22]: 0 | Plant response rating, Velvetleaf [10, 23]: 0 | Velvetleaf plant response rating ([10]; Preemergence, scale 0 to 100): 0 | Wheat plant response rating ([11]; postemergence, 0-100 scale): 60 | Plant response rating, Wheat [11, 16]: 85 | Plant response rating, Wheat [11, 17]: 85 | Plant response rating, Wheat [11, 18]: 98 | Plant response rating, Wheat [11, 19]: 30 | Plant response rating, Wheat [11, 22]: 70 | Plant response rating, Wheat [11, 23]: 95 | Wheat plant response rating ([11]; Preemergence, scale 0 to 100): 0 | Cupgrass, Woolly plant response rating ([12]; postemergence, 0-100 scale): 85 | Plant response rating, Cupgrass, Woolly [12, 16]: 95 | Plant response rating, Cupgrass, Woolly [12, 17]: 100 | Plant response rating, Cupgrass, Woolly [12, 18]: 100 | Plant response rating, Cupgrass, Woolly [12, 19]: 0 | Plant response rating, Cupgrass, Woolly [12, 21]: 0 | Cupgrass, Woolly plant response rating ([12]; Preemergence, scale 0 to 100): 0 | Plant response rating, Rice (rice (Oryza sativa); [24]): 0 | Plant response rating, Rice (rice (Oryza sativa); [25]): 45 | Plant response rating, Rice (rice (Oryza sativa); [26]): 45 | Plant response rating, Rice (rice (Oryza sativa); [27]): 0

Cc1ccc(-c2ccc(Cl)cc2)cc1-c1c(O)cnn(C)c1=O [Compound 46]
Plant response rating, Russian Thistle [1, 13]: 0 | Plant response rating, Russian Thistle [1, 14]: 0 | Plant response rating, Russian Thistle ([1]; 62 g ai/ha, scale 0 to 100): 0 | Russian Thistle plant response rating ([1]; scale 0 to 100): 0 | Plant response rating, Galium [2, 13]: 0 | Plant response rating, Galium [2, 15]: 0 | Plant response rating, Galium ([2]; 62 g ai/ha, scale 0 to 100): 0 | Galium plant response rating ([2]; scale 0 to 100): 0 | Plant response rating, Cocklebur [3, 19]: 0 | Plant response rating, Cocklebur [3, 20]: 0 | Plant response rating, Cocklebur [3, 21]: 0 | Cocklebur plant response rating ([3]; Preemergence, scale 0 to 100): 0 | Plant response rating, Sunflower [4, 13]: 0 | Plant response rating, Sunflower [4, 14]: 0 | Plant response rating, Sunflower ([4]; 62 g ai/ha, scale 0 to 100): 0 | Sunflower plant response rating ([4]; scale 0 to 100): 0 | Plant response rating, Bromegrass, Downy [5, 19]: 0 | Plant response rating, Bromegrass, Downy [5, 20]: 0 | Plant response rating, Bromegrass, Downy [5, 21]: 5 | Bromegrass, Downy plant response rating ([5]; Preemergence, scale 0 to 100): 0 | Plant response rating, Goosegrass [6, 19]: 100 | Plant response rating, Goosegrass [6, 20]: 100 | Plant response rating, Goosegrass [6, 21]: 100 | Goosegrass plant response rating ([6]; Preemergence, scale 0 to 100): 0 | Plant response rating, Foxtail, Green [7, 19]: 10 | Plant response rating, Foxtail, Green [7, 20]: 80 | Plant response rating, Foxtail, Green [7, 21]: 100 | Foxtail, Green plant response rating ([7]; Preemergence, scale 0 to 100): 0 | Plant response rating, Crabgrass, Large [8, 19]: 0 | Plant response rating, Crabgrass, Large [8, 20]: 60 | Plant response rating, Crabgrass, Large [8, 21]: 100 | Crabgrass, Large plant response rating ([8]; Preemergence, scale 0 to 100): 0 | Plant response rating, Pigweed [9, 19]: 0 | Plant response rating, Pigweed [9, 22]: 60 | Plant response rating, Pigweed [9, 21]: 100 | Pigweed plant response rating ([9]; Preemergence, scale 0 to 100): 0 | Plant response rating, Soybean (soybean (Glycine max); [19]): 0 | Plant response rating, Soybean (soybean (Glycine max); [22]): 0 | Plant response rating, Soybean (soybean (Glycine max); [21]): 0 | Soybean plant response rating (soybean (Glycine max); Preemergence, scale 0 to 100): 0 | Plant response rating, Velvetleaf [10, 19]: 0 | Plant response rating, Velvetleaf [10, 22]: 0 | Plant response rating, Velvetleaf [10, 23]: 0 | Velvetleaf plant response rating ([10]; Preemergence, scale 0 to 100): 0 | Plant response rating, Wheat [11, 19]: 0 | Plant response rating, Wheat [11, 22]: 0 | Plant response rating, Wheat [11, 23]: 0 | Wheat plant response rating ([11]; Preemergence, scale 0 to 100): 0 | Plant response rating, Cupgrass, Woolly [12, 19]: 0 | Plant response rating, Cupgrass, Woolly [12, 20]: 85 | Plant response rating, Cupgrass, Woolly [12, 21]: 98 | Cupgrass, Woolly plant response rating ([12]; Preemergence, scale 0 to 100): 0 | Plant response rating, Rice (rice (Oryza sativa); [24]): 0 | Plant response rating, Rice (rice (Oryza sativa); [25]): 20 | Plant response rating, Rice (rice (Oryza sativa); [26]): 35 | Plant response rating, Rice (rice (Oryza sativa); [27]): 0
